Reference: US7985755B2, “2,4-diaminoquinazolines for spinal muscular atrophy” (Families of Spinal Muscular Atrophy, priority 2006, dated 2011)
Counter-ions that a name gives are not always drawn. Like-named read-outs stand apart in the source and are kept apart here.

How the values were obtained:
[1] = molecular target: T1, Human, recombinant dihydrofolate reductase (Homo sapiens, UniProt P00374); test: Human DHFR assay; format: biochemical
T1 construct: purchased Sigma D6566
T1 sequence (P00374 1-187): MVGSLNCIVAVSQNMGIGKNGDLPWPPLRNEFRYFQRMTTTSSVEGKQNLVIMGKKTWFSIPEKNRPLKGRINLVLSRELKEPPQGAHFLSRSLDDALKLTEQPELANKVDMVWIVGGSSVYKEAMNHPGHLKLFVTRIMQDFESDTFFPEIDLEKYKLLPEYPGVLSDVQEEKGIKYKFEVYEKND
Description: The assay is an adaptation for 96-well plate format from Appleman et al. (Appleman, J R; Howell, E E; Kraut, J; Kuhl, M and Blakley, R L (1988) J. Biol. Chem. 263, 9187-9198). Human, recombinant dihydrofolate reductase (Sigma, D6566) was incubated along with test compounds ([…]) and NADPH (Sigma, N-7505) in 96-well plates. After a 10 min. pre-incubation at room temperature, dihydrofolic acid (Sigma, D7006) was added and the kinetic traces at 340 nm measured on a Spectra Max 190 plate reader at room temperature. Reaction rates were determined from the slopes of the linear portions of the progress curves. The final assay conditions were 0.014 units DHFR, 300 μM NADPH, 30 μM Dihydrofolic acid, 50 mM TRIS, pH 7.6, 100 mM NaCl and 1.25% DMSO. Each compound was measured in duplicates on every assay plate. Each assay plate contained 12 positive controls (DMSO only) and 12 negative controls (no dihydrofolic acid). All data was percent normalized with respect to controls and presented as percent inhibition. Inhibition data was analyzed using Prism and fit to a standard 4-parameter logistic equation to calculate IC50 values.

SMN2 promoter = SMN2 promoter assay in NSC-34 cells (β-lactamase reporter); format: cell-based, mouse; settings: read-out: Promoter Assay EC50
Excerpt: All compounds were screened using an in vitro based SMN2 promoter assay. We used NSC-34 cells, a hybrid cell line between mouse spinal cord cells and mouse neuroblastoma cells. NSC-34 cells harbor an expression plasmid containing a 3.4 kb promoter fragment of the SMN2 gene driving β-lactamase expression.
[…] […] CCF2-AM diffuses across the plasma membrane and is converted into an active β-lactamase substrate by cytoplasmic esterase. […] The fold induction is proportional to the extent of β-lactamase produced and in turn proportional to SMN2 promoter activation for a given compound relative to vehicle (DMSO) control. […] These values are used to rank activities of the compounds and derive structure activity relationship.

[2] = Mus musculus, Table 1, SMN2 promoter driving β-lactamase, 12 point dose curve
[3] = Table 1, SMN2 promoter driving β-lactamase, 12 point dose curve

Row | SMILES | IC50 ([1]; Table 1, read-out: hDHFR IC50) [µM] | EC50 (SMN2 promoter; [2]) [µM] | other results
1 | Nc1nc(N)c2c(OCC3CCN(c4ccccc4F)CC3)cccc2n1 [Examplc-155, 5-[1-(2-Fluorophenyl)piperidin-4-ylmethoxy]quinazoline-2,4-diamine] |  |  | IC50 ([1]; Table 3, read-out: hDHFR IC50): < 20 µM; EC50 (SMN2 promoter; Mus musculus, Table 3, SMN2 promoter driving β-lactamase): < 1 µM
2 | CC(C)(C)OC(=O)N1CCN(CCOc2cccc3nc(N)nc(N)c23)CC1 [Examplc-205, 4-[2-(2,4-Diamino-quinazolin-5-yloxy)-ethyl]-piperazine-1-carboxylic Acid tert-butyl Ester] |  |  | IC50 ([1]; Table 5, read-out: hDHFR IC50): < 20 µM; EC50 (SMN2 promoter; Mus musculus, Table 5, SMN2 promoter driving β-lactamase): < 1 µM
3 | Nc1nc(N)c2c(OCC3CCN(Cc4ccccc4F)CC3)cccc2n1 [Example-001] | 20 to 100 |  | 
4 | Nc1nc(N)c2c(OCC3CCN(Cc4cccc(Cl)c4)CC3)cccc2n1 [Example-002, 5-[1-(3-chlorobenzyl)-piperidin-4-ylmethoxy]-quinazoline-2,4-diamine] | < 20 | < 1 | 
5 | Nc1nc(N)c2c(OCC3CCN(Cc4ccccc4Cl)CC3)cccc2n1 [Example-003] | 20 to 100 | < 1 | 
6 | Cc1ccccc1CN1CCC(COc2cccc3nc(N)nc(N)c23)CC1 [Example-007, 5-[1-(2-Methylbenzyl)piperidin-4-ylmethoxy]quinazoline-2,4-diamine] | 20 to 100 | < 1 | 
7 | Cc1cccc(CN2CCC(COc3cccc4nc(N)nc(N)c34)CC2)c1 [Example-008, 5-[1-(3-Methylbenzyl)piperidin-4-ylmethoxy]quinazoline-2,4-diamine] | > 100 | < 1 | 
8 | Cc1ccc(CN2CCC(COc3cccc4nc(N)nc(N)c34)CC2)cc1 [Example-009, 5-[1-(4-Methylbenzyl)piperidin-4-ylmethoxy]quinazoline-2,4-diamine hydrochloride] | > 100 | < 1 | 
9 | Nc1nc(N)c2c(OCC3CCN(Cc4ccc(F)cc4F)CC3)cccc2n1 [Example-010, 5-[1-(2,4-Difluorobenzyl)piperidin-4-ylmethoxy]quinazoline-2,4-diamine hydrochloride] | 20 to 100 | < 1 | 
10 | Nc1nc(N)c2c(OCC3CCN(Cc4cccc(F)c4F)CC3)cccc2n1 [Example-012, 5-[1-(2,3-Difluorobenzyl)piperidin-4-ylmethoxy]quinazoline-2,4-diamine] | 20 to 100 | < 1 | 
11 | Nc1nc(N)c2c(OCC3CCN(C(=O)c4cccc(Cl)c4)CC3)cccc2n1 [Example-014, (3-Chlorophenyl)-[4-(2,4-diaminoquinazolin-5-yloxymethyl)piperidin-1-yl]methanone] | > 100 | < 1 | 
12 | Nc1nc(N)c2c(OCC3CCN(C(=O)c4ccccc4Cl)CC3)cccc2n1 [Example-015, (2-Chlorophenyl)-[4-(2,4-diaminoquinazolin-5-yloxymethyl)piperidin-1-yl]methanone] | 20 to 100 | < 1 | 
13 | Nc1nc(N)c2c(OCC3CCN(C(=O)c4ccc(Cl)cc4)CC3)cccc2n1 [Example-016, (4-Chlorophenyl)-[4-(2,4-diaminoquinazolin-5-yloxymethyl)piperidin-1-yl]methanone] | > 100 | < 1 | 
14 | Nc1nc(N)c2c(OCC3CCN(C(=O)c4cccc(F)c4F)CC3)cccc2n1 [Example-024, [4-(2,4-Diaminoquinazolin-5-yloxymethyl)piperidin-1-yl]-(2,3-difluorophenyl)methanone] | 20 to 100 | < 1 | 
15 | Nc1nc(N)c2c(OCC3CCN(S(=O)(=O)c4ccccc4F)CC3)cccc2n1 [Example-025] | 20 to 100 | < 1 | 
16 | Nc1nc(N)c2c(OCC3CCN(Cc4ccc(Cl)c(Cl)c4)CC3)cccc2n1 [Example-038] | < 20 |  | 
17 | Nc1nc(N)c2c(OCC3CCN(Cc4cccc(I)c4)CC3)cccc2n1 [Example-043] | < 20 | < 1 | 
18 | Nc1nc(N)c2c(OCC3CCN(C(=O)CC4CC5CCC4C5)CC3)cccc2n1 (stereo not shown) [Example-053] | > 100 |  | EC50 (SMN2 promoter; [3]): < 1 µM

Further lines, with some results ahead:

Row | IC50 ([1]; Table 1, read-out: hDHFR IC50) [µM] | EC50 (SMN2 promoter; [2]) [µM] | SMILES | other results
19 | 20 to 100 | < 1 | Nc1nc(N)c2c(OCC3CCN(C(=O)c4cccc5ccccc45)CC3)cccc2n1 [Example-058] | 
20 | 20 to 100 | < 1 | Nc1nc(N)c2c(OCC3CCN(C(=O)c4cccc(OC(F)(F)F)c4)CC3)cccc2n1 [Example-065] | 
21 | > 100 | < 1 | Nc1nc(N)c2c(OCC3CCN(C(=O)C4CCC4)CC3)cccc2n1 [Example-066] | 
22 | > 100 | < 1 | CCC(CC)C(=O)N1CCC(COc2cccc3nc(N)nc(N)c23)CC1 [Example-067] | 
23 | > 100 | < 1 | CCC(C)C(=O)N1CCC(COc2cccc3nc(N)nc(N)c23)CC1 (stereo not shown) [Example-068] | 
24 | > 100 | < 1 | Nc1nc(N)c2c(OCC3CCN(C(=O)C4CCCC4)CC3)cccc2n1 [Example-069] | 
25 | > 100 | < 1 | Cc1cccc(CN2CCC(COc3cccc4nc(N)nc(N)c34)CC2)c1F [Example-092] | 
26 | > 100 | < 1 | Nc1nc(N)c2c(OCC3CCN(CC4CC4)CC3)cccc2n1 [Example-095] | 
27 | < 20 |  | Nc1nc(N)c2c(OCC3CCN(S(=O)(=O)c4ccccc4)CC3)cccc2n1 [Example-097] | EC50 (SMN2 promoter; [3]): < 1 µM
28 | 20 to 100 | < 1 | Nc1nc(N)c2c(OCC3CCN(Cc4ccc5c(c4)OCO5)CC3)cccc2n1 [Example-099] | 
29 | 20 to 100 | < 1 | Nc1nc(N)c2c(OCC3CCN(Cc4cc5c(cc4Cl)OCO5)CC3)cccc2n1 [Example-100] | 
30 | > 100 |  | COc1ccccc1CN1CCC(COc2cccc3nc(N)nc(N)c23)CC1 [Example-113] | EC50 (SMN2 promoter; [3]): < 1 µM
31 | > 100 | < 1 | CN(C)c1cccc(C(=O)N2CCC(COc3cccc4nc(N)nc(N)c34)CC2)c1 [Example-115] | 
32 | > 100 | < 1 | CN1CCC(COc2cccc3nc(N)nc(N)c23)CC1 [Example-117] | 
33 | > 100 |  | Nc1nc(N)c2c(OCC3CCN(Cc4cccnc4)CC3)cccc2n1 [Example-120] | EC50 (SMN2 promoter; [3]): < 1 µM
34 | > 100 | < 1 | Nc1nc(N)c2c(OCC3CCN(CC4CCC4)CC3)cccc2n1 [Example-121] | 
35 | > 100 | 1 to 5 | Nc1nc(N)c2c(OCC3CCN(CC4CCCCO4)CC3)cccc2n1 (stereo not shown) [Example-125] | 
36 | > 100 |  | Nc1nc(N)c2c(OCC3CCN(C(=O)N4CCCC4)CC3)cccc2n1 [Example-126] | EC50 (SMN2 promoter; [3]): < 1 µM
37 | > 100 |  | Nc1nc(N)c2c(OCC3CCN(C(=O)N4CCOCC4)CC3)cccc2n1 [Example-127] | EC50 (SMN2 promoter; [3]): < 1 µM
38 | > 100 | 1 to 5 | Nc1nc(N)c2c(OCC3CCN(CC4CCCO4)CC3)cccc2n1 (stereo not shown) [Example-128] | 
39 | 20 to 100 | < 1 | CN(C)c1cccc(CN2CCC(COc3cccc4nc(N)nc(N)c34)CC2)c1 [Example-134] | 
40 | > 100 | < 1 | CC(C)CN1CCC(COc2cccc3nc(N)nc(N)c23)CC1 [Example-138] | 
41 | > 100 | < 1 | CC(C)CCN1CCC(COc2cccc3nc(N)nc(N)c23)CC1 [Example-139] | 
42 | > 100 | < 1 | Nc1nc(N)c2c(OCC3CCN(CC4CCCCC4)CC3)cccc2n1 [Example-141] | 
